Laboratory results taken from publication PMC7287031 (Pharmacology Research & Perspectives, 2020).
Like-named read-outs stand apart in the source and are kept apart here.

Columns and labels:
[1] = Tissue distribution by quantitative whole-body autoradiography (QWBA); format: in vivo; settings: rat QWBA
Method: ADME studies (including QWBA in pigmented and non‐pigmented rats) using radiolabeled ribociclib were conducted in rat and dog. Relevant institutional and national guides for the care and use of laboratory animals were followed.
QWBA studies were conducted with the tritium label in Hanover Wistar and partially pigmented Long‐Evans rats. A further QWBA study was conducted with the carbon‐14 label in male Long Evans rats in order to support the dosimetry calculation for the human ADME study. Briefly, 40‐µm thick lengthwise dehydrated whole body sections were exposed for 1 day to Fuji BAS III imaging plates (Fuji Photo Film Co., Ltd., J‐Tokyo) in a lead‐shielded box and room temperature, and scanned in a Fuji BAS 5000 phosphor imager at a 50‐µm scanning step. Concentrations of total radiolabeled components in the tissues were determined by comparative densitometry and digital analysis of the autoradiogram; blood samples of known radioactivity concentrations processed under the same conditions as the samples to analyze were used as calibrators.

[2] = In vitro plasma protein binding (ultrafiltration), dog; format: in vitro ADME; settings: 100 and 1000 ng/mL
Method: Stock solutions were spiked into plasma to achieve the intended concentrations. After incubation for 1 hour at 37°C under constant gentle agitation, the spiked plasma samples (n = 3) were centrifuged (2000 g, 10 min, 37°C) in pre‐warmed Centrifree devices. Total radioactivity was determined in the ultrafiltrate (Cu, concentration of unbound compound) and in the sample introduced into the reservoir before ultrafiltration (Cp). The unbound (fu) and the bound (fb) fraction in plasma were calculated as follows: fu (%) = Cu/Cp × 100; fb (%) = 100‐Fu (%).

[3] = Dog pharmacokinetic studies: plasma PK of ribociclib after single i.v. or oral dose; format: in vivo; settings: male; for half-life: read-out: t½ (converted)
Method: ADME studies (including QWBA in pigmented and non‐pigmented rats) using radiolabeled ribociclib were conducted in rat and dog. Relevant institutional and national guides for the care and use of laboratory animals were followed. […]

[4] = Human ADME study: quantitative metabolite profiling in urine and feces; format: in vivo; settings: pooled excreta n=6, from metabolite patterns (radio profiling)
Method: Average pools across the six subjects were also created by combining equal percentages (of total urine and feces excreted over the time interval) of the individual subject pools. Urine pools were analyzed directly for metabolite profiling (column recovery of a representative sample was measured), whereas feces pools were subjected to extraction. Specifically, to each aliquot of feces homogenate, two volumes of acetonitrile were added. After centrifugation, the pellet was washed further with an additional two volumes of acetonitrile. […] All washes were combined, evaporated under nitrogen, and reconstituted with a solution of 15‐mM ammonium formate (pH 3.5). This feces extract reconstitute was analyzed for metabolite profiling. Combined extraction and reconstitution (overall recovery) and column recovery were measured. […] The HPLC column used was a Phenomenex Kinetex, C18, 250 × 4.6 mm, equipped with a pre‐column of the same type (2.1 × 4.6 mm), which was placed in a column oven at 40°C. […] The HPLC gradient was as follows: initial conditions were 5% mobile phase B for 1 minute, then increased to 20% at 10 minutes post injection where it was held (isocratic) up to 20 minutes. […] The post column flow was directed to the fraction collector operated in a time‐slice mode and containing 96‐well Lumaplates (Perkin Elmer). The plates were dried at room temperature and the radioactivity was measured using a microplate scintillation counter model TopCount NXT (Perkin Elmer) instrument (up to 3 × 100‐minute counting time). […] Metabolites were identified during the same injections using data generated by the high‐resolution mass spectrometer. The molecular ions and key fragments of each drug‐related component were determined. Key fragments for each metabolite were derived from their product ion mass spectra and were used to determine the metabolite structures. Where possible, structural assignments were supported by exact mass measurement, comparison with synthetic standards and/or Hydrogen/Deuterium (H/D) exchange LC‐MS(/MS).

[5] = Human ADME study: PK of ribociclib and LEQ803 in plasma and urine (validated bioanalytical assay); format: in vivo; settings: for AUC(0-inf) / AUC(0-t) / Cmax / half-life: plasma, po, 600 mg
Method: Subjects continued to fast for 4 hours after drug administration.
Plasma aliquots at each time point were subjected to protein precipitation with three volumes of acetonitrile containing 0.1% (v:v) formic acid, followed by dilution and analysis by liquid chromatography‐tandem mass spectrometry in selected reaction monitor‐positive ion mode using heated electrospray ionization as the ionization technique. For urine aliquots, six volumes of acetonitrile containing 0.1% (v:v) formic acid were added, followed by dilution and analysis in the same way as for plasma. Components were separated using a YMC‐Triart C18 (2.0 x 30 mm, 1.9 µm) column (YMC Co. Ltd.). […] Mobile phase A was 0.1% formic acid in H2O while mobile phase B was 0.1% formic acid in ACN:Isopropanol 8:2 v:v.

[6] = Beagle, 0.5 mg/kg, dog m (3), po, 0.5 mg base/kg
[7] = Beagle, 5 mg/kg, dog m (3), po, 5.0 mg base/kg
[8] = Beagle, dog m (4), po, 18.9 mg base/kg

**Q.** Which “time of last measurable concentration (total radioactivity)” value (“time of last measurable concentration” for short) ([1]; 52 of 58 tissues investigated) does the source give for `CN(C)C(=O)c1cc2cnc(Nc3ccc(N4CCNCC4)cn3)nc2n1C1CCCC1` [ribociclib, Ribociclib] here?
**A.** ≤ 48 h

**Q.** And the “time of last measurable concentration” value ([1]; eyes and meninges, last observation time point)?
**A.** 840 h

**Q.** What about the “tissue distribution of total radioactivity” value ([1]; intravenous or oral dose) of the same molecule?
**A.** marked distribution into the extravascular compartment, except for brain

**Q.** What about the “time of last measurable concentration” value ([1]; lymph nodes, preputial gland, testis) of the same molecule?
**A.** 168 h

**Q.** And the fraction unbound at 1 h [2]?
**A.** 0.34 ± 0.01

**Q.** What about the Cmax [3, 6] of the same molecule?
**A.** 10.4 ng/mL

**Q.** And the bioavailability [3, 6]?
**A.** 64%

**Q.** What about the AUC(0-t) ([3]; Beagle, 0.5 mg/kg, dog m (3), po, 0.5 mg base/kg, AUC interval 24 h) of the same molecule?
**A.** 155 ng·h/mL

**Q.** And the Cmax [3, 7]?
**A.** 206 ng/mL

**Q.** What about the Tmax [3, 7] of the same molecule?
**A.** 1 h

**Q.** What about the AUC(0-t) ([3]; Beagle, 5 mg/kg, dog m (3), po, 5.0 mg base/kg, AUC interval 168 h) of the same molecule?
**A.** 4520 ng·h/mL

**Q.** And the half-life [3, 7]?
**A.** 38.8 h

**Q.** And the Cmax [3, 8]?
**A.** 1220 ng/mL

**Q.** What about the Tmax [3, 8] of the same molecule?
**A.** 1 h

**Q.** What about the bioavailability [3, 8] of the same molecule?
**A.** 87%

**Q.** What about the AUC(0-t) ([3]; Beagle, dog m (4), po, 18.9 mg base/kg, AUC interval 48 h) of the same molecule?
**A.** 21100 ng·h/mL

**Q.** What about the half-life [3, 8] of the same molecule?
**A.** 12.6 h

**Q.** What about the AUC(0-t) ([3]; Beagle, iv, 0.2 mg/kg, dog m (3), 0.2 mg base/kg, AUC interval 24 h) of the same molecule?
**A.** 105 ng·h/mL

**Q.** And the clearance ([3]; iv, dog m (3), 0.2 mg base/kg)?
**A.** 31.7 mL/min/kg

**Q.** What about the Vd ([3]; iv, dog m (3), i.v., 0.2 mg base/kg, read-out: Vss) of the same molecule?
**A.** 27.9 L/kg

**Q.** And the half-life ([3]; iv, dog m (3), i.v., 0.2 mg base/kg)?
**A.** 18.1 h

**Q.** And the “Excretion (% of dose), Feces” value [4]?
**A.** 17.3 % of dose

**Q.** And the “Ribociclib in urine by validated bioanalytical assay” value ([5]; human)?
**A.** 6.75 % of the dose

**Q.** What about the “renal clearance lower than non-renal clearance” value ([5]; human) of the same molecule?
**A.** more than 10 fold

**Q.** What about the Tmax ([5]; human plasma, bioanalytical assay, single oral 600 mg, N=6, read-out: tmax, median (range)) of the same molecule?
**A.** 1.75 h

**Q.** What about the AUC(0-inf) ([5]; human, human plasma, bioanalytical assay, single oral 600 mg, N=6, read-out: AUCinf, arithmetic mean (CV %)) of the same molecule?
**A.** 8700 ng·h/mL

**Q.** And the AUC(0-inf) ([5]; human, human plasma, bioanalytical assay, single oral 600 mg, N=6, read-out: AUCinf, median)?
**A.** 8880 ng·h/mL

**Q.** What about the AUC(0-t) ([5]; human, human plasma, bioanalytical assay, single oral 600 mg, N=6, read-out: AUClast, arithmetic mean (CV %)) of the same molecule?
**A.** 8600 ng·h/mL

**Q.** What about the AUC(0-t) ([5]; human, human plasma, bioanalytical assay, single oral 600 mg, N=6, read-out: AUClast, median) of the same molecule?
**A.** 8780 ng·h/mL

**Q.** And the Cmax ([5]; human, human plasma, bioanalytical assay, single oral 600 mg, N=6, read-out: Cmax, arithmetic mean (CV %))?
**A.** 507 ng/mL

**Q.** What about the Cmax ([5]; human, human plasma, bioanalytical assay, single oral 600 mg, N=6, read-out: Cmax, median) of the same molecule?
**A.** 518 ng/mL

**Q.** And the half-life ([5]; human, human plasma, bioanalytical assay, single oral 600 mg, N=6, read-out: t½, arithmetic mean (CV %) (converted))?
**A.** 54.7 h

**Q.** What about the half-life ([5]; human, human plasma, bioanalytical assay, single oral 600 mg, N=6, read-out: t½, median (converted)) of the same molecule?
**A.** 49.4 h

**Q.** And the “CL/F, median” value ([5]; human, single oral 600 mg)?
**A.** 70.2 L/h

**Q.** What about the CL renal ([5]; male, plasma and urine, human, single oral 600 mg, read-out: renal clearance, median (converted)) of the same molecule?
**A.** 92.5 mL/min
